In ChEMBL document CHEMBL1139986, “Synthesis and biodistribution of 8-iodo-11-(4-methylpiperazino)-5H-dibenzo[b,e][1,4]-diazepine: Iozapine” (Bioorg Med Chem Lett, 2007):

Assays:
Conditions in all cases: in vivo
[1] = test system: Thyroid gland; experiment: Biodistribution in rabbit thyroid at 20 MBq after 1.5 hrs; type: ADME, organism-based, Oryctolagus cuniculus
[2] = species on record: Oryctolagus cuniculus; experiment: Biodistribution in rabbit whole body at 20 MBq after 3.0 hrs; type: ADME, organism-based
[3] = test system: Thyroid gland; experiment: Biodistribution in rabbit thyroid at 20 MBq after 1 hr; type: ADME, organism-based, Oryctolagus cuniculus
[4] = species on record: Oryctolagus cuniculus; experiment: Biodistribution in rabbit whole body at 20 MBq after 20.0 hrs; type: ADME, organism-based
[5] = test system: Brain; experiment: Biodistribution in rabbit brain at 20 MBq after 3.0 hrs; type: ADME, organism-based, Oryctolagus cuniculus
[6] = test system: Brain; experiment: Biodistribution in rabbit brain at 20 MBq after 2.0 hrs; type: ADME, organism-based, Oryctolagus cuniculus
[7] = test system: Brain; experiment: Biodistribution in rabbit brain at 20 MBq after 20.0 hrs; type: ADME, organism-based, Oryctolagus cuniculus
[8] = species on record: Oryctolagus cuniculus; experiment: Biodistribution in rabbit whole body at 20 MBq; type: ADME, organism-based
[9] = test system: Thyroid gland; experiment: Biodistribution in rabbit thyroid at 20 MBq after 2.5 hrs; type: ADME, organism-based, Oryctolagus cuniculus
[10] = test system: Thyroid gland; experiment: Biodistribution in rabbit thyroid at 20 MBq after 0.5 hrs; type: ADME, organism-based, Oryctolagus cuniculus
[11] = test system: Lung; experiment: Biodistribution in rabbit lung at 20 MBq after 2.5 hrs; type: ADME, organism-based, Oryctolagus cuniculus
[12] = species on record: Oryctolagus cuniculus; experiment: Biodistribution in rabbit whole body at 20 MBq after 2.0 hrs; type: ADME, organism-based
[13] = test system: Brain; experiment: Biodistribution in rabbit brain at 20 MBq after 1.5 hrs; type: ADME, organism-based, Oryctolagus cuniculus
[14] = test system: Thyroid gland; experiment: Biodistribution in rabbit thyroid at 20 MBq after 2.0 hrs; type: ADME, organism-based, Oryctolagus cuniculus
[15] = test system: Lung; experiment: Biodistribution in rabbit lung at 20 MBq after 0.5 hrs; type: ADME, organism-based, Oryctolagus cuniculus
[16] = species on record: Oryctolagus cuniculus; experiment: Biodistribution in rabbit whole body at 20 MBq after 1 hr; type: ADME, organism-based
[17] = test system: Lung; experiment: Biodistribution in rabbit lung at 20 MBq after 1 hr; type: ADME, organism-based, Oryctolagus cuniculus
[18] = test system: Brain; experiment: Biodistribution in rabbit brain at 20 MBq; type: ADME, organism-based, Oryctolagus cuniculus
[19] = test system: Brain; experiment: Biodistribution in rabbit brain at 20 MBq after 2.5 hrs; type: ADME, organism-based, Oryctolagus cuniculus
[20] = test system: Thyroid gland; experiment: Biodistribution in rabbit thyroid at 20 MBq; type: ADME, organism-based, Oryctolagus cuniculus
[21] = test system: Thyroid gland; experiment: Biodistribution in rabbit thyroid at 20 MBq after 20.0 hrs; type: ADME, organism-based, Oryctolagus cuniculus
[22] = species on record: Oryctolagus cuniculus; experiment: Biodistribution in rabbit whole body at 20 MBq after 0.5 hrs; type: ADME, organism-based
[23] = test system: Lung; experiment: Biodistribution in rabbit lung at 20 MBq; type: ADME, organism-based, Oryctolagus cuniculus
[24] = test system: Thyroid gland; experiment: Biodistribution in rabbit thyroid at 20 MBq after 3.0 hrs; type: ADME, organism-based, Oryctolagus cuniculus
[25] = test system: Lung; experiment: Biodistribution in rabbit lung at 20 MBq after 20.0 hrs; type: ADME, organism-based, Oryctolagus cuniculus
[26] = test system: Brain; experiment: Biodistribution in rabbit brain at 20 MBq after 1 hr; type: ADME, organism-based, Oryctolagus cuniculus
[27] = test system: Brain; experiment: Biodistribution in rabbit brain at 20 MBq after 0.5 hrs; type: ADME, organism-based, Oryctolagus cuniculus
[28] = test system: Lung; experiment: Biodistribution in rabbit lung at 20 MBq after 3.0 hrs; type: ADME, organism-based, Oryctolagus cuniculus
[29] = species on record: Oryctolagus cuniculus; experiment: Biodistribution in rabbit whole body at 20 MBq after 1.5 hrs; type: ADME, organism-based
[30] = species on record: Oryctolagus cuniculus; experiment: Biodistribution in rabbit whole body at 20 MBq after 2.5 hrs; type: ADME, organism-based
[31] = test system: Lung; experiment: Biodistribution in rabbit lung at 20 MBq after 2.0 hrs; type: ADME, organism-based, Oryctolagus cuniculus
[32] = test system: Lung; experiment: Biodistribution in rabbit lung at 20 MBq after 1.5 hrs; type: ADME, organism-based, Oryctolagus cuniculus

CN1CCN(C2=Nc3cc([123I])ccc3Nc3ccccc32)CC1 [[123I]I-OZAPINE]
Drug uptake [1]: 1.3 %ID | Drug uptake [2]: 96.9 %ID | Drug uptake [3]: 1.4 %ID | Drug uptake [4]: 54.6 %ID | Drug uptake [5]: 1.2 %ID | Drug uptake [6]: 1.5 %ID | Drug uptake [7]: 0.7 %ID | Drug uptake [8]: 100 %ID | Drug uptake [9]: 1.2 %ID | Drug uptake [10]: 1.4 %ID | Drug uptake [11]: 6 %ID | Drug uptake [12]: 97.4 %ID | Drug uptake [13]: 1.6 %ID | Drug uptake [14]: 1.4 %ID | Drug uptake [15]: 10.7 %ID | Drug uptake [16]: 95.8 %ID | Drug uptake [17]: 10.4 %ID | Drug uptake [18]: 2.2 %ID | Drug uptake [19]: 1.5 %ID | Drug uptake [20]: 1.5 %ID | Drug uptake [21]: 1.9 %ID | Drug uptake [22]: 98.7 %ID | Drug uptake [23]: 14.7 %ID | Drug uptake [24]: 1.4 %ID | Drug uptake [25]: 2.3 %ID | Drug uptake [26]: 1.8 %ID | Drug uptake [27]: 2.2 %ID | Drug uptake [28]: 6.4 %ID | Drug uptake [29]: 97.7 %ID | Drug uptake [30]: 99.4 %ID | Drug uptake [31]: 7.6 %ID | Drug uptake [32]: 8.1 %ID
